Test: Potentiometric titration of DPDP (pH 11.2 to 2.0), protonation sites
Type: physicochemical
Settings: at a pH of 3 and above
Description: The compound DPDP was studied potentiometrically from pH 11.2 to 2.0. Data sets were collected on a custom-built automatic potentiometric titration apparatus composed of a METROHM 655 DOSIMAT automatic buret, a FISHER ACCUMET pH meter with a CORNING calomel combination electrode, a custom-blown water jacketed titration cell, a BRINKMAN LAUDA K-2/R constant temperature bath and a COMMODORE 64 computer. […] Data analysis was performed on an IBM-AT computer using the least squares program, BETA (Harris, W. et al, supra), and the data analysis program, HANDNBAR (Harris, W. et al, supra). […] All solutions were made from distilled, deionized water that was further purified on a MILLI-Q cartridge system, degassed, and then kept under an atmosphere of argon which had been scrubbed for CO2 and O2.

## Cc1ncc(COP(=O)(O)O)c(CN(CCN(CC(=O)O)Cc2c(COP(=O)(O)O)cnc(C)c2O)CC(=O)O)c1O [DPDP, N,N'-bis-(pyridoxal-5-phosphate)-ethylenediamine-N,N'-diacetic acid]
  Protonation / charge state of the ligand (dissociation constants assigned to the protonation sites): anionic and possesses deprotonated metal binding sites

Source: patent publication US4842845A, “Radioactive metal chelates for dipyridoxyl phosphate” (Salutar, Inc., priority 1987, dated 1989)
